US20260001893A1, “SMALL MOLECULE MODULATORS OF STAT6” (Gilead Sciences, Inc., priority 2024, published 2026)

Tested on: Eotaxin-3 (CCL26) release in human whole blood stimulated with IL-4
Experiment: Human whole blood eotaxin-3 assay (IL-4 stimulated eotaxin-3 release)
Type: cell-based
Details: Homo sapiens, 48 h, human whole blood stimulated with recombinant human IL-4, 48 h; inhibition of eotaxin-3 release; given for test compounds with >80% Emax; geometric mean
Method in brief: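 Eotaxin-3 (CCL26) release was quantified by MSD immunoassay in supernatants of human heparinised whole blood after 48 h at 37° C with IL-4 ([…] final). Compounds, in 4-fold dilutions at 0.5% DMSO, were added 2 h before stimulation.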

EC50 | SMILES
15.1 nM | CN(C)C(=O)c1cc(F)c(C2CCN(Cc3cc4c(-n5ccc6c(c5=O)CCN6)ccnc4n3C)CC2)c(F)c1 [Example 1m110, 3,5-difluoro-N,N-dimethyl-4-(1-((1-methyl-4-(4-oxo-1,2,3,4-tetrahydro-5H-pyrrolo[3,2-c]pyridin-5-yl)-1H-pyrrolo[2,3-b]pyridin-2-yl)methyl)piperidin-4-yl)benzamide]
6.98 nM | Cc1cc(C(=O)N(C)C)cc(F)c1C1=CCN([C@@H](C)c2cc3c(-n4cc(F)c(N)cc4=O)ccnc3n2C)CC1 [Example 1m111, (S)-4-(1-(1-(4-(4-amino-5-fluoro-2-oxopyridin-1 (2H)-yl)-1-methyl-1H-pyrrolo[2,3-b]pyridin-2-yl)ethyl)-1,2,3,6-tetrahydropyridin-4-yl)-3-fluoro-N,N,5-trimethylbenzamide]
30 nM | CN(C)C(=O)c1ccc(C2=CCN(Cc3cc4c(-n5ccc6c(c5=O)CCN6)ccnc4n3C)CC2)c(C2CC2)c1 [Example 1m113, cyclopropyl-N-dimethyl-4-(1-((1-methyl-4-(4-oxo-1,2,3,4-tetrahydro-5H-pyrrolo[3,2-c]pyridin-5-yl)-1H-pyrrolo[2,3-b]pyridin-2-yl)methyl)-1,2,3,6-tetrahydropyridin-4-yl)benzamide]
185 nM | [2H]C([2H])([2H])N(C(=O)c1cc(C)c(C2=CCN(Cc3cc4c(-n5ccc(NC)c(C)c5=O)ccnc4n3C)CC2)c(F)c1)C([2H])([2H])[2H] [Example 1m114, 3-fluoro-5-methyl-N,N-bis(methyl-d3)-4-(1-((1-methyl-4-(3-methyl-4-(methylamino)-2-oxopyridin-1 (2H)-yl)-1H-pyrrolo[2,3-b]pyridin-2-yl)methyl)-1,2,3,6-tetrahydropyridin-4-yl)-benzamide]
20.4 nM | [2H]C([2H])([2H])N(C(=O)c1cc(F)c(C2=CCN(Cc3cc4c(-n5ccc6c(c5=O)CCN6)ccnc4n3C)CC2)c(F)c1)C([2H])([2H])[2H] [Example 1m115, 3,5-difluoro-N,N-bis(methyl-d3)-4-(1-((1-methyl-4-(4-oxo-1,2,3,4-tetrahydro-5H-pyrrolo[3,2-c]pyridin-5-yl)-1H-pyrrolo[2,3-b]pyridin-2-yl)methyl)-1,2,3,6-tetrahydropyridin-4-yl)benzamide]
229 nM | CNc1ccn(-c2ccnc3c2cc(CN2CCC(c4c(F)cc(C(=O)N(C)C)cc4F)CC2)n3C)c(=O)c1F [Example 1m116, 3,5-difluoro-4-(1-((4-(3-fluoro-4-(methylamino)-2-oxopyridin-1 (2H)-yl)-1-methyl-1H-pyrrolo[2,3-b]pyridin-2-yl)methyl)piperidin-4-yl)-N,N-dimethylbenzamide]
24.8 nM | [2H]C([2H])([2H])N(C(=O)c1cc(F)c(C2CCN(Cc3cc4c(-n5ccc6c(c5=O)CCN6)ccnc4n3C)CC2)c(F)c1)C([2H])([2H])[2H] [Example 1m117, 3,5-difluoro-N,N-bis(methyl-d3)-4-(1-((1-methyl-4-(4-oxo-1,2,3,4-tetrahydro-5H-pyrrolo[3,2-c]pyridin-5-yl)-1H-pyrrolo[2,3-b]pyridin-2-yl)methyl)piperidin-4-yl)benzamide]
55.2 nM | CNc1nc(=O)n(-c2ccnc3c2cc(CN2CCC(c4c(F)cc(C(=O)N(C)C)cc4F)CC2)n3C)cc1F [Example 1m118, 3,5-difluoro-4-(1-((4-(5-fluoro-4-(methylamino)-2-oxopyrimidin-1 (2H)-yl)-1-methyl-1H-pyrrolo[2,3-b]pyridin-2-yl)methyl)piperidin-4-yl)-N,N-dimethylbenzamide]
36.4 nM | CN(C)C(=O)c1cc(F)c(C2CCN(Cc3cc4c(-n5cc(F)c(N)c(F)c5=O)ccnc4n3C)CC2)c(F)c1 [Example 1m119, 4-(1-((4-(4-amino-3,5-difluoro-2-oxopyridin-1 (2H)-yl)-1-methyl-1H-pyrrolo[2,3-b]pyridin-2-yl)methyl)piperidin-4-yl)-3,5-difluoro-N,N-dimethylbenzamide]
11.5 nM | C[C@@H](c1cc2c(-n3ccc4c(c3=O)CCN4)ccnc2n1C)N1CC=C(c2c(F)cc(C(=O)N(C)C)cc2F)CC1 [Example 1m122, (S)-3,5-difluoro-N,N-dimethyl-4-(1-(1-(1-methyl-4-(4-oxo-1,2,3,4-tetrahydro-5H-pyrrolo[3,2-c]pyridin-5-yl)-1H-pyrrolo[2,3-b]pyridin-2-yl)ethyl)-1,2,3,6-tetrahydropyridin-4-yl)benzamide]
211 nM | C[C@H](c1cc2c(-n3ccc4c(c3=O)CCN4)ccnc2n1C)N1CC=C(c2c(F)cc(C(=O)N(C)C)cc2F)CC1 [Example 1m123, (R)-3,5-difluoro-N,N-dimethyl-4-(1-(1-(1-methyl-4-(4-oxo-1,2,3,4-tetrahydro-5H-pyrrolo[3,2-c]pyridin-5-yl)-1H-pyrrolo[2,3-b]pyridin-2-yl)ethyl)-1,2,3,6-tetrahydropyridin-4-yl)benzamide]
7.6 nM | CNc1cc(=O)n(-c2ccnc3c2cc([C@H](C)N2CC=C(c4c(C)cc(C(=O)N(C)C)cc4F)CC2)n3C)cc1F [Example 1m124, (S)-3-fluoro-4-(1-(1-(4-(5-fluoro-4-(methylamino)-2-oxopyridin-1 (2H)-yl)-1-methyl-1H-pyrrolo[2,3-b]pyridin-2-yl)ethyl)-1,2,3,6-tetrahydropyridin-4-yl)-N,N,5-trimethylbenzamide]
25.1 nM | CNc1ccn(-c2ccnc3c2cc([C@H](C)N2CC=C(c4c(C)cc(C(=O)N(C)C)cc4F)CC2)n3C)c(=O)c1F [Example 1m125, (S)-3-fluoro-4-(1-(1-(4-(3-fluoro-4-(methylamino)-2-oxopyridin-1 (2H)-yl)-1-methyl-1H-pyrrolo[2,3-b]pyridin-2-yl)ethyl)-1,2,3,6-tetrahydropyridin-4-yl)-N,N,5-trimethylbenzamide]
12.2 nM | C[C@@H](c1cc2c(-n3ccc4c(c3=O)CCN4)ccnc2n1C)N1CCC(c2c(F)cc(C(=O)N(C)C)cc2F)CC1 [Example 1m126, (S)-3,5-difluoro-N,N-dimethyl-4-(1-(1-(1-methyl-4-(4-oxo-1,2,3,4-tetrahydro-5H-pyrrolo[3,2-c]pyridin-5-yl)-1H-pyrrolo[2,3-b]pyridin-2-yl)ethyl)piperidin-4-yl)benzamide]
49.5 nM | C[C@H](c1cc2c(-n3ccc4c(c3=O)CCN4)ccnc2n1C)N1CCC(c2c(F)cc(C(=O)N(C)C)cc2F)CC1 [Example 1m127, (R)-3,5-difluoro-N,N-dimethyl-4-(1-(1-(1-methyl-4-(4-oxo-1,2,3,4-tetrahydro-5H-pyrrolo[3,2-c]pyridin-5-yl)-1H-pyrrolo[2,3-b]pyridin-2-yl)ethyl)piperidin-4-yl)benzamide]
3.42 nM | [2H]C([2H])([2H])N(C(=O)c1cc(C)c(C2=CCN([C@@H](C)c3cc4c(-n5ccc6c(c5=O)CCN6)ccnc4n3C)CC2)c(F)c1)C([2H])([2H])[2H] [Example 1m128, (S)-3-fluoro-5-methyl-N,N-bis(methyl-d3)-4-(1-(1-(1-methyl-4-(4-oxo-1,2,3,4-tetrahydro-5H-pyrrolo[3,2-c]pyridin-5-yl)-1H-pyrrolo[2,3-b]pyridin-2-yl)ethyl)-1,2,3,6-tetrahydropyridin-4-yl)benzamide]
4.09 nM | CNc1nc(=O)n(-c2ccnc3c2cc([C@H](C)N2CC=C(c4c(C)cc(C(=O)N(C)C)cc4F)CC2)n3C)cc1F [Example 1m129, (S)-3-fluoro-4-(1-(1-(4-(5-fluoro-4-(methylamino)-2-oxopyrimidin-1 (2H)-yl)-1-methyl-1H-pyrrolo[2,3-b]pyridin-2-yl)ethyl)-1,2,3,6-tetrahydropyridin-4-yl)-N,N,5-trimethylbenzamide]
22.5 nM | CNc1cc(=O)n(-c2ccnc3c2cc([C@@H](C)N2CCC(c4c(C)cc(C(=O)N(C)C)cc4F)CC2)n3C)cc1F [Example 1m130, (R)-3-fluoro-4-(1-(1-(4-(5-fluoro-4-(methylamino)-2-oxopyridin-1 (2H)-yl)-1-methyl-1H-pyrrolo[2,3-b]pyridin-2-yl)ethyl)piperidin-4-yl)-N,N,5-trimethylbenzamide]
891 nM | CNc1cc(=O)n(-c2ccnc3c2cc([C@H](C)N2CCC(c4c(C)cc(C(=O)N(C)C)cc4F)CC2)n3C)cc1F [Example 1m131, (S)-3-fluoro-4-(1-(1-(4-(5-fluoro-4-(methylamino)-2-oxopyridin-1 (2H)-yl)-1-methyl-1H-pyrrolo[2,3-b]pyridin-2-yl)ethyl)piperidin-4-yl)-N,N,5-trimethylbenzamide]
10.8 nM | Cc1cc(C(=O)N(C)C)cc(F)c1C1=CCN([C@@H](C)c2cc3c(-n4cc(F)c(N)c(F)c4=O)ccnc3n2C)CC1 [Example 1m132, (S)-4-(1-(1-(4-(4-amino-3,5-difluoro-2-oxopyridin-1 (2H)-yl)-1-methyl-1H-pyrrolo[2,3-b]pyridin-2-yl)ethyl)-1,2,3,6-tetrahydropyridin-4-yl)-3-fluoro-N,N,5-trimethylbenzamide]
75.2 nM | CN(C)C(=O)c1cc(F)c(C2CCN(Cc3cc4c(-n5cc(F)c6c(c5=O)CCN6)ccnc4n3C)CC2)c(F)c1 [Example 1m133, 3,5-difluoro-4-(1-((4-(7-fluoro-4-oxo-1,2,3,4-tetrahydro-5H-pyrrolo[3,2-c]pyridin-5-yl)-1-methyl-1H-pyrrolo[2,3-b]pyridin-2-yl)methyl)piperidin-4-yl)-N,N-dimethylbenzamide]
48.1 nM | CNc1c(F)cn(-c2ccnc3c2cc(CN2CCC(c4c(F)cc(C(=O)N(C)C)cc4F)CC2)n3C)c(=O)c1F [Example 1m136, 4-(1-((4-(3,5-difluoro-4-(methylamino)-2-oxopyridin-1 (2H)-yl)-1-methyl-1H-pyrrolo[2,3-b]pyridin-2-yl)methyl)piperidin-4-yl)-3,5-difluoro-N,N-dimethylbenzamide]
589 nM | CNc1cc(=O)n(-c2ccnc3c2cc([C@H](C)N2CC=C(c4c(C)cc(C(=O)N(C)C)cc4F)CC2)n3C)cc1OC [Example 1m137, (S)-3-fluoro-4-(1-(1-(4-(5-methoxy-4-(methylamino)-2-oxopyridin-1 (2H)-yl)-1-methyl-1H-pyrrolo[2,3-b]pyridin-2-yl)ethyl)-1,2,3,6-tetrahydropyridin-4-yl)-N,N,5-trimethylbenzamide]
